Measured values from patent publication US7531195B2, “Schisandrin B preparation” (priority 2005, dated 2009).
Marks after values point to notes of the source that are not given here.

What was measured:
[1] = test system: Isolated-Perfused Rat Heart; assay: Myocardial ischemia-reperfusion injury (LDH leakage), isolated-perfused heart of young rats; type: in vivo; conditions: 35 days
Description: Male/Female adult Sprague-Dawley rats (˜10 weeks old) were maintained under a 12-h dark/light cycle at about 22° C. and allowed food and water ad libitum. Animals were randomly divided into groups, with at least 5 animals in each. In the pretreatment groups, rats were treated intragastrically with (−) Schisandrin B at a daily dose of 1 or 10 mg/kg for 35 days. Control animals received oil only (10 ml/kg). Twenty-four hours following the last dosing, hearts were isolated from control or drug-pretreated rats and then subjected to Langendorff perfusion as described below.
The heart was excised quickly and immediately immersed in ice-cold and heparinized (50 unit/ml) saline. The aorta was cannulated and then transferred to a warm and moistured chamber of the perfusion apparatus. The heart was retrogradely perfused according to Langendorff method as described (Yim and Ko 1999).
Coronary effluent was collected in 1-min fractions at increasing time intervals during the course of equilibration and reperfusion. The fractions were immediately put on ice until assay for lactate dehydrogenase (LDH) activity. The extent of LDH leakage during the reperfusion period, an indirect index of myocardial injury, was estimated by computing the area under the curve of the graph plotting the percent LDH activity (with respect to the mean pre-ischemic value measured during the equilibration period) against the reperfusion time (1-20 min), as described (Yim and Ko 1999). Immediately after the I-R procedure, heart ventricular tissue samples were obtained for biochemical analysis.

Myocardial Mitochondria [2] = assay: Myocardial mitochondrial glutathione antioxidant status, old male and female rats; type: in vivo, rat; conditions: liposome-encapsulated in drinking water, 10 mg/kg daily, 35 days
Description: (§1) Aged male and female rats (˜12 months old) were administered with liposome-encapsulated (−) Schisandrin B in drinking water for 35 days, with the daily dose estimated to be 10 mg/kg.
(§2) Male/Female adult Sprague-Dawley rats (˜12 months old) were maintained under a 12-h dark/light cycle at about 22° C. and allowed food and water ad libitum. Animals were randomly divided into groups, with at least 5 animals in each. In the pretreatment groups, rats were treated with liposome-encapsulated (−) Schisandrin B in drinking water for 35 days, with the estimated daily dose of 10 mg/kg. Control animals received empty liposomes-containing drinking water. Twenty-four hours following the last dosing, hearts were isolated from control or drug-pretreated rats and then subjected to Langendorff perfusion as described below.
(§3) Myocardial tissue samples were rinsed with ice-cold isotonic buffer (50 mM Tris, 0.32 M sucrose, 1 mM Na2EDTA, 0.2 mg/ml soybean trypsin inhibitor, 0.2 mg/ml bacitracine, 0.16 mg/ml benzamidine). Tissue homogenates were prepared by homogenizing 0.8 g of myocardial tissue in 8 ml ice-cold isotonic buffer and the homogenates were used for the preparation of mitochondrial fractions by differential centrifugation, as described in Chiu and Ko (2004). The mitochondrial pellets were resuspended in 1.5 ml of isotonic buffer containing 150 μl of 2 mg/ml soybean trypsin inhibitor and constituted the mitochondrial fractions.
Aliquots (500 μl) of mitochondrial fractions were taken for measuring mitochondrial GSH level by HPLC methods, using GSH as standards, respectively, as described (Chiu et al 2002). Aliquots (400 μl) of mitochondrial fractions were mixed with 933 μl Triton X-100 solution (0.3%, v/v, in isotonic buffer) and sonicated for 2 min on ice. The mixtures were then subjected to measurements of mitochondrial glutathione reductase (GRD), Se-glutathione peroxidase (GPX) and glutathione S-transferases (GST) activities by spectrophotometric methods, as described in Chiu et al. (2002).

[3] = test system: mitochondria of brain, heart, liver and skeletal muscle; assay: Mitochondrial ATP generation capacity in various tissues of young female rats; type: in vivo, rat; conditions: 15 days; for ATP generation: (−) Sch B, α-LA, α-Toc at daily 10, 5 and 70 mg/kg respectively
Myocardial Mitochondria [4] = assay: Myocardial mitochondrial ATP generation capacity, old male and female rats; type: in vivo, rat; conditions: liposome-encapsulated in drinking water, 10 mg/kg daily, 35 days
Description: as §1, §2, §3
Myocardial mitochondrial ATP generation capacity was measured by incubating 200 μl of nucleus-free tissue homogenate with 200 μl of substrate solution (containing 100 mM glutamate and 34 mM malate) and 20 μl ADP (2.3 mM) for 10 min at 37° C., and the ATP level were measured using an assay kit from Sigma Chemical Co. (St. Louis, Mo., USA). LDH activity was spectrophotometrically measured as described (Yim and Ko 1999).

COc1cc2c(c(OC)c1OC)-c1c(cc3c(c1OC)OCO3)CC(C)C(C)C2 (single isomer, unassigned; (-)) [(−) Sch B, (−) Schisandrin B]
LDH Leakage ([1]; I-R, female, 1 mg/kg daily): 2861 ± 70.6^b AU
LDH Leakage, percent protection vs unpretreated control ([1]; I-R, female, 1 mg/kg daily): (31%)
LDH Leakage ([1]; I-R, female, 10 mg/kg daily): 2023 ± 83.1^b AU
LDH Leakage, percent protection vs unpretreated control ([1]; I-R, female, 10 mg/kg daily): (60%)
LDH Leakage ([1]; I-R, male, 1 mg/kg daily): 3638 ± 125^a AU
LDH Leakage, percent protection vs unpretreated control ([1]; I-R, male, 1 mg/kg daily): (37%)
LDH Leakage ([1]; I-R, male, 10 mg/kg daily): 2775 ± 55.8^a AU
LDH Leakage, percent protection vs unpretreated control ([1]; I-R, male, 10 mg/kg daily): (57%)
LDH Leakage ([1]; NON-I-R, female, 1 mg/kg daily): 776 ± 22.1 AU
LDH Leakage ([1]; NON-I-R, female, 10 mg/kg daily): 813 ± 14.0 AU
LDH Leakage ([1]; NON-I-R, male, 1 mg/kg daily): 804 ± 18.0 AU
LDH Leakage ([1]; NON-I-R, male, 10 mg/kg daily): 820 ± 13.8 AU
GPX (Myocardial Mitochondria [2]; old female rats (~12 months)): 44.6 ± 4.29 mU/mg Protein
GRD (Myocardial Mitochondria [2]; old female rats (~12 months)): 5.65 ± 0.65 mU/mg protein
GSH (Myocardial Mitochondria [2]; old female rats (~12 months)): 6.80 ± 0.28^b nmol/mg protein
GST (Myocardial Mitochondria [2]; old female rats (~12 months)): 14.0 ± 0.45^b mU/mg protein
GRD, percent increase vs untreated control (Myocardial Mitochondria [2]; old female rats): (13%)
GSH, percent increase vs untreated control (Myocardial Mitochondria [2]; old female rats): (31%)
GPX (Myocardial Mitochondria [2]; old male rats (~12 months)): 52.2 ± 0.72^a mU/mg Protein
GRD (Myocardial Mitochondria [2]; old male rats (~12 months)): 3.72 ± 0.29^a mU/mg protein
GSH (Myocardial Mitochondria [2]; old male rats (~12 months)): 4.43 ± 0.09^a nmol/mg protein
GST (Myocardial Mitochondria [2]; old male rats (~12 months)): 17.5 ± 0.76 mU/mg protein
GPX, percent increase vs untreated control (Myocardial Mitochondria [2]; old male rats): (15%)
GRD, percent increase vs untreated control (Myocardial Mitochondria [2]; old male rats): (39%)
GSH, percent increase vs untreated control (Myocardial Mitochondria [2]; old male rats): (265%)
ATP generation ([3]; BRAIN): 143 ± 2 percent control
ATP generation ([3]; HEART): 131 ± 4 percent control
ATP generation ([3]; LIVER): 134 ± 5 percent control
change in ATP generation in skeletal muscle tissue ([3]; SKELETAL MUSCLE, 10 mg/kg daily): No detectable change
ATP generation ([3]; SKELETAL MUSCLE): 105 ± 41 percent control
ATP generation (Myocardial Mitochondria [4]; old female rats (~12 months)): 4.43 ± 0.10^b μmol/min/mg protein
ATP Generation, percent increase vs untreated control (Myocardial Mitochondria [4]; old female rats): (48%)
ATP generation (Myocardial Mitochondria [4]; old male rats (~12 months)): 3.75 ± 0.06 μmol/min/mg protein
ATP Generation, percent increase vs untreated control (Myocardial Mitochondria [4]; old male rats): (11%)
